In brackets after ≈: the same amount, converted by molar mass. Where two headings read alike, the source gives them in different places.
System: P. acnes
Assay: MIC by agar dilution, Propionibacterium acnes
Format: cell-based
Conditions: Cutibacterium acnes
Method: The strains of P. acnes used were CSS3288, CSS 3023, 998, and 1044 obtained from Luc Dubreuil. P. acnes strains are grown on Brucella blood agar with hemin and vitamin K [1], plates are incubated 48 to 72 hours at 35-37° C. under anaerobic conditions. Brucella blood agar with hemin and vitamin K was prepared as follows: sterile Brucella agar with hemin and vitamin K was tempered to 50-54° C. and the medium was supplemented with 5% lacked horse blood and poured in Petri dishes. Broth cultures are performed in Wilkins-Chalgren broth. All cultures are done under anaerobic conditions in an anaerobic chamber. Agar media was inoculated for single-colony isolation using sterile disposable loops. The MICs of the antibacterial agents was determined by agar dilution. […] Brucella Blood Agar with hemin and vitamin K plates containing series of two-fold dilutions of antibacterial agents were prepared. The base agar was prepared and tempered to 50-54° C. Then the blood supplement and the antibiotics were added and the 7 ml were aseptically poured into six-well culture plates. Once the agar had solidified it was transferred into the anaerobe chamber for 24 hours before use to allow for pre-reduction. Twenty-five microliters of P. acnes culture containing 10^6 CFU of were spotted in each well. The plates were incubated anaerobically for 72 hours at 35-37° C. The MIC is the lowest concentration that inhibits growth of P. acnes.

[1] = P. acnes, agar dilution, anaerobic, 72 hours, read-out: MIC

Q: `CC(=O)O[C@H]1C[C@@]2(C)[C@@H](C[C@@H](O)[C@H]3[C@@]4(C)CC[C@@H](O)[C@@H](C)[C@@H]4CC[C@@]32C)/C1=C(\CCC=C(C)C)C(=O)O` [Fusidic acid, fusidic acid] was tested. Which MIC [1] did it give?
A: Its MIC is 4 µg/mL (≈ 7.74 µM).

Q: Which MIC [1] does the source give for `O=C(Nc1ccc([N+](=O)[O-])cc1Cl)c1cc(Cl)ccc1O` [Niclosamide, niclosamide] here?
A: Its MIC is 0.5 µg/mL (≈ 1.53 µM).

Q: How did the MIC (72 h) turn out when `C=C[C@]1(C)C[C@@H](OC(=O)CS[C@@H]2C[C@H]3CC[C@@H](C2)N3C)[C@]2(C)[C@H](C)CC[C@]3(CCC(=O)[C@H]32)[C@@H](C)[C@@H]1O` [Retapamulin, retapamulin] was run?
A: Its MIC is 0.016 µg/mL (≈ 0.0309 µM).
